# Data as given in paper PMC3958426, “Prolonged Calcitonin Receptor Signaling by Salmon, but Not Human Calcitonin, Reveals Ligand Bias” (PLoS ONE, 2014).
# What was measured:
# [1] = target: T1, human calcitonin receptor (CT(a)R), U2OS CALCR cells (Homo sapiens, UniProt P30988); test: Ligand association on live U2OS CALCR cells; assay type: binding; conditions: 37°C
# T1 construct: host or cells: U2OS (PathHunter U2OS CALCR β-arrestin cell line)
# T1 sequence (P30988 25-474): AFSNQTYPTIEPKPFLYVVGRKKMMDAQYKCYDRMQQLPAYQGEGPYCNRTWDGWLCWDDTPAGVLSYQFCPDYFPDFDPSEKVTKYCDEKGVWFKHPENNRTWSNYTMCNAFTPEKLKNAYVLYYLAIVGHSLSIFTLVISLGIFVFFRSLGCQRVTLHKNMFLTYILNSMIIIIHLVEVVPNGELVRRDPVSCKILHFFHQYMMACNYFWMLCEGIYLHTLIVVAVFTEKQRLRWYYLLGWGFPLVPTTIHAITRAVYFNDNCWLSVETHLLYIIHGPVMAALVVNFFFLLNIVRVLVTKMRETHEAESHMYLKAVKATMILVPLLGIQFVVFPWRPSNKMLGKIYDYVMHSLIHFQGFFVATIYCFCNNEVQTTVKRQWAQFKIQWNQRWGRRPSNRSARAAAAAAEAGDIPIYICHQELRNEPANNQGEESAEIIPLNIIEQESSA
# Procedure: 15,000 U2OS CALCR cells/well were seeded into 96 well culture plates the day prior to the experiment. All cell based binding kinetics studies were made identical in terms of ‘hot’ and ‘cold’ ligand concentrations and incubation times to match membrane studies. Post incubation sample extraction: The binding mixture and cells were mixed in culture medium in triplicates in 96-well plates and incubated at 37°C. At the end of the incubation, the binding mixture was removed and cells were washed three times in PBS to remove residual unbound ligand. 200 μL 0.5 M NaOH was added to each well and cells were allowed to solubilize for at least 20 min.
# (§1) Samples, resuspended pellet or solubilized cell membrane, were transferred to borosilicate tubes and bound radioactivity was measured using a 1470 Wallac Wizard Gamma Counter.
# CT(a)R = conditions: live cells; cited from earlier work
# Excerpt: The calcitonins (CT) are a group of evolutionary conserved 32 amino acid peptide hormones, which have been isolated from many different species over the last 50 years and divided into several distinct groups based on structure and sequence. The calcitonins bind to the calcitonin receptor (CT(a)R), which belongs to the class B subfamily of G-protein coupled receptors (GPCRs), [3]. […] […].
# [2] = target: T2, human calcitonin receptor (CT(a)R), U2OS CALCR membranes (Homo sapiens, UniProt P30988); test: Ligand association on isolated U2OS CALCR membranes; assay type: binding; conditions: ^125I ligand 0.25 nM; for association constant KON, membranes: room temperature (∼22°C), 20 mM HEPES, 1 mM CaCl2, 5 mM MgCl2, nonspecific with 250 nM unlabeled sCT, triplicate, mean ± SEM; for time to plateau of specific binding, membranes: ∼22°C
# T2 construct: host or cells: U2OS (PathHunter U2OS CALCR β-arrestin cell line)
# T2 sequence (P30988 25-474): T1 sequence (P30988 25-474)
# Procedure: The binding kinetics of ^125I-(Tyr 22)-sCT and ^125I-(Tyr 12)-hCT were assessed using isolated membranes from Cos-7 CT(a)R or U2OS CALCR. Concentration of radio-labeled ligand was 0.25 nM unless otherwise specified. Membranes were isolated and purified as previously described. Membrane protein content was determined with a NanoDrop 1000 (Thermo Scientific). In general, radio-labeled ligand and membrane were mixed in binding buffer (20 mM HEPES, 1 mM CaCl2, 5 mM MgCl2) with complete protease inhibitor (11836170001, Roche), each condition in triplicate, in 96-well plates and incubation at room temperature (∼22°C) with shaking. Ligand association: The radio-labeled ligand was incubated with the membrane and the membrane-bound radioactivity was determined as described above at specific time points 2½, 5, 10, 20, 40, 80 and 160 min. Nonspecific binding was determined at each time point with co-incubation of 250 nM unlabeled sCT. Ligand dissociation: The radio-labeled ligand and membrane were incubated for one hour to allow ligand-receptor saturation. Dissociation was monitored following the addition of 250 nM unlabeled sCT to prevent rebinding of dissociated radio-ligand. The membrane-bound radioactivity (total binding) was determined at time 0, 1, 2, 4, 6, 24, 48 and 72 h after the initiation of dissociation. Competitive ligand binding: The radio-labeled ligand and membrane were co-incubated with one of seven different concentrations of corresponding unlabeled ligand (1 μM sCT or hCT with a fivefold dilution row) for one hour. Post incubation sample extraction: The binding mixtures were transferred to 1.5 ml Eppendorf tubes and centrifuged at 17,000 g (4°C for 5 min). Membrane pellets were washed with cold binding buffer, resuspended and then re-centrifuged (17,000 g, 4°C for 5 min).
# as §1
# amylin receptor (AMY-R) = conditions: isolated membranes; cited from earlier work
# Excerpt: (§2) The calcitonins (CT) are a group of evolutionary conserved 32 amino acid peptide hormones, which have been isolated from many different species over the last 50 years and divided into several distinct groups based on structure and sequence. The calcitonins bind to the calcitonin receptor (CT(a)R), which belongs to the class B subfamily of G-protein coupled receptors (GPCRs), [3].
# [3] = cited from earlier work
# Excerpt: as §2
Substance,"peak binding, live cells, ^125I-hCT vs ^125I-sCT [1]","specific binding after 180 min compared to 20 min, live cells ([1]; ^125I ligand 0.25 nM)","time of maximal specific binding, live cells ([1]; ^125I ligand 0.25 nM)",reversibility of binding (CT(a)R),"association constant KON, membranes [2]","time to plateau of specific binding, membranes [2]","time to plateau of specific binding, live cells ([1]; ^125I ligand 0.25 nM)","association constant KON, live cells ([1]; ^125I ligand 0.25 nM, triplicate, mean ± SEM)",dissociation from the amylin receptor (amylin receptor (AMY-R)),duration of biological activity in vivo [3]
^125I-(Tyr12)-hCT [^125I-hCT],similar,< 20%,20 min,fully reversible,2.1±0.3×10^9 M^−1min^−1,~8 min,,,,
^125I-(Tyr22)-sCT [^125I-sCT],similar,,,,3.1±0.5×10^9 M^−1min^−1,~8 min,180 min,1.1±0.1×10^8 M^−1min^−1,,
"amylin (KCNTATCATQRLANFLVHSSNNFGAILSSTNVGSNTY; Islet amyloid polypeptide; UniProt P10997 34-70, looked up)",,,,,,,,,fully reversible,
davalintide,,,,,,,,,dissociated very slowly,prolonged biological activity in vivo
